# Laboratory results: patent US6977272B2, “Method for antagonizing inhibition effects of alcohol on cell adhesion” (President and Fellows of Harvard College, priority 2002, dated 2005)
# Several values for one entry are separate records, joined by “and”; a condition that tells them apart may be missing. Identical values can stand only once. Like-named read-outs stand apart in the source and are kept apart here.
# Tests used:
# [1] = obtained from a published source or calculated from published octanol/water partition coefficients (divided by five); cited from earlier work
# [2] = target: T1, L1-mediated cell-cell adhesion in human L1-transfected NIH/3T3 cells (2B2-L1, 2A2-L1) (Homo sapiens, UniProt P32004); test: Cell aggregation (cell-cell adhesion) assay in ethanol-sensitive, human L1-transfected NIH/3T3 cells; format: cell-based; design: antagonist at the aqueous concentration (μM); Antagonist Activity Butanol % ± SEM; 1-alc; effect of increasing concentrations of 1-butanol on the antagonist activity (in words): dose or concentration left out as unconfirmed; conditions: for effect of increasing concentrations of 1-butanol on the antagonist activity (in words): 2 to […] mM 1-butanol, single antagonist concentration (FIG. 5A, 5B); for agonist or antagonist activity (in words): at the ECEQ and at 10 times the ECEQ; for IC50: read-out: IC50 concentration (antagonist, used in FIG. 5A); for antagonist effect at higher concentrations (in words): 2 μM to 10 μM; for antagonist activity against ethanol (in words): test concentrations of FIG. 3 / Table 1
# T1 sequence (P32004 whole entry): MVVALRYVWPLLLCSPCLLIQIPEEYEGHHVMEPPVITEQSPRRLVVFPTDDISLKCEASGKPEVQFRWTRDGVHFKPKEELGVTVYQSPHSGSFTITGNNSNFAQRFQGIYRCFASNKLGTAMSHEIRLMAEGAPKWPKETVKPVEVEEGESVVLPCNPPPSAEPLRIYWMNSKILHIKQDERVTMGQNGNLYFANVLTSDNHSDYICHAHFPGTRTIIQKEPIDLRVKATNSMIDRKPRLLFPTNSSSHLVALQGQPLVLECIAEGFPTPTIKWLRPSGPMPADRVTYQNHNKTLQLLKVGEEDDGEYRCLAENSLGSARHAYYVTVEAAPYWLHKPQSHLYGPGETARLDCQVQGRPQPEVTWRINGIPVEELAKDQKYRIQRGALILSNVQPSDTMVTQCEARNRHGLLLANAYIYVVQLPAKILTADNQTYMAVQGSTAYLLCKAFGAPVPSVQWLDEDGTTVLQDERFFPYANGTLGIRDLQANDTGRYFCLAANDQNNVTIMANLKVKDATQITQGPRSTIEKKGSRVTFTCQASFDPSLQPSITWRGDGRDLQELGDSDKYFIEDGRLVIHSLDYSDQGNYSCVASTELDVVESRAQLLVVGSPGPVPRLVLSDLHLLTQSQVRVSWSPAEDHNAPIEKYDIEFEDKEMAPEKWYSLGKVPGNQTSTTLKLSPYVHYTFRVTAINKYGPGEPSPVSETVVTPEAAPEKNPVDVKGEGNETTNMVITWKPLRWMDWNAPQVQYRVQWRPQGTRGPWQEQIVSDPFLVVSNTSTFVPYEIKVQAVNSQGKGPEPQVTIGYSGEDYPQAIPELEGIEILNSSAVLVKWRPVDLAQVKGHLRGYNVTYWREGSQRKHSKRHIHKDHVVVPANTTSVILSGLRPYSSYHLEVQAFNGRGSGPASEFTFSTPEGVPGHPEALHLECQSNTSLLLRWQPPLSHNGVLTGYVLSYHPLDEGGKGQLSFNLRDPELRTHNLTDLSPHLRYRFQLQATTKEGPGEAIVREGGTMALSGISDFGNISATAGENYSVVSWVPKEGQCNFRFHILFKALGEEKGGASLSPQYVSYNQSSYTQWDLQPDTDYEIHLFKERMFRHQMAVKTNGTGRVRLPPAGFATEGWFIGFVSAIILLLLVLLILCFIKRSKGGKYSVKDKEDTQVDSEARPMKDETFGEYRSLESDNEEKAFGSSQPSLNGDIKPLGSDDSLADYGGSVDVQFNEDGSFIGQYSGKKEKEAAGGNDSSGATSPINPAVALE
# Procedure: (§1) NIH/3T3 cells were cultured at 37° C. in Dulbecco's […] Eagle medium (DMEM) (Invitrogen, Carlsbad, Calif.) supplemented with 10% normal calf serum (Intergen, Purchase, N.Y.) and 400 μg/ml G418 (Life Technologies), in an atmosphere of 90% air and 10% CO2. Three subclones were utilized in these studies: 2B2-L1, 2A2-L1 and Vec-1A5.
# Cell adhesion assays were performed in the absence and presence of the compounds, listed below in Table 1. […] The aqueous concentration of each antagonist was calculated to produce membrane concentrations equivalent to 100 mM ethanol. Membrane/buffer partition coefficients (Pm/b) were obtained or calculated from published octanol/water partition coefficients.
# (§2) Cells were detached by gentle agitation in calcium-free and magnesium-free PBS supplemented with 0.1 mg/ml. DNase, mechanically dissociated to obtain a single-cell suspension, and diluted to 350,000 cells/ml. One ml of the cell suspension was added per well (4.5 cm^2) to a 12-well plate. Agonists and test antagonists were added simultaneously, plates were sealed with parafilm to prevent evaporation, and the cells were gently shaken for 30 minutes at room temperature or on ice. Cells were viewed at a final magnification of 200× and each well was scored for single and adherent cells in five to six microscopic fields of view. Approximately 100 cells per field of view and 600 cells per well were counted. The percent of adherent cells was calculated for each microscopic field of view and then averaged for each well.
# Agonists and antagonists were initially tested at aqueous concentrations that were calculated to produce molar membrane concentrations (˜10 mM) equivalent to those produced by an aqueous concentration of 100 mM ethanol (ECEQ).
# L1-mediated cell-cell adhesion was defined as the difference in percent of adherent cells between an L1-transfected cell line (2B2-L1 or 2A2-L1) and a vector-transfected cell line (Vec-1A5).
# Agonists include compounds that inhibit L1-mediated cell-cell adhesion.
# [3] = test system: NIH/3T3 cells transfected with an empty vector (Vec-1A5); test: Aggregation assay on NIH/3T3 cells transfected with an empty vector (non-L1 component of cell adhesion); format: cell-based, murine; conditions: four independent assays, each compound at the concentration given in the source, control 15±1
# Procedure: as §1, §2
# Each candidate antagonist was tested at a single aqueous concentration that was calculated to produce a molar membrane concentration equivalent to that produced by a buffer solution of 100 mM ethanol (ECEQ).
# [4] = Membrane/buffer partition coefficient (Pm/b); format: physicochemical; conditions: from Pm/b of Table 1
# Procedure: Cell adhesion assays were performed in the absence and presence of the compounds, listed below in Table 1. […] Membrane/buffer partition coefficients (Pm/b) were obtained or calculated from published octanol/water partition coefficients. The compounds are sorted by decreasing membrane/buffer partition coefficients.
# Calculations were based on membrane-buffer partition coefficients (Pm/b), which were obtained from a published source (McCreery and Hunt, 1978) or were derived by dividing the octanol/water partition coefficient by five.
# [5] = target: T1, L1-mediated cell-cell adhesion in human L1-transfected NIH/3T3 cells (2B2-L1, 2A2-L1); design: antagonist at the aqueous concentration (μM); Antagonist Activity Butanol % ± SEM; 1-alc; conditions: 3-buten-1-ol alone (Wilkemeyer et al., 2000); cited from earlier work
# [6] = EC50 membrane (based on calculated membrane concentrations, expressed relative to 1-pentanol), against 100 mM ethanol, calculated from the Pm/b (FIG. 3)
# [7] = approximate EC50 (against 2 mM 1-butanol), antagonist concentration used in FIG. 5B
# [8] = against 2 mM butanol, linear regression of concentration-response curves (FIG. 4), read-out: aqueous concentration that produced half maximal effect (antagonism)
# [9] = against 2 mM butanol, not adjusted for membrane concentration
molecule,measurement,setting,value
"CC(C)c1cccc(C(C)C)c1O [2,6-di-isopropyl phenol, 2,6-di-isopropylphenol, reference compound]",P(m/b) membrane/buffer partition coefficient,[1],1233
CCCC(C)(C)O [2-methyl-2-pentanol],P(m/b) membrane/buffer partition coefficient,[1],5.2
same,effect of increasing concentrations of 1-butanol on the antagonist activity (in words),[2],did not eliminate the antagonist activity
OCc1ccccc1 [benzyl alcohol],P(m/b) membrane/buffer partition coefficient,[1],2.52
same,effect of increasing concentrations of 1-butanol on the antagonist activity (in words),[2],eliminated the antagonist activity
CCC(O)CC [3-pentanol],P(m/b) membrane/buffer partition coefficient,[1],4.69
same,effect of increasing concentrations of 1-butanol on the antagonist activity (in words),[2],eliminated the antagonist activity
CCCCCCCCCCCCO [1-dodecanol],P(m/b) membrane/buffer partition coefficient,[1],26979
same,EC50,[2]; [6],140 µM and 28 µM
"C[S+](C)[O-] [dimethyl sulfoxide, reference compound]",mean±S.E.M. percent cell adhesion,[3],13±0%
same,P(m/b) membrane/buffer partition coefficient,[1],0.012
same,inhibition of L1-mediated cell adhesion (in words),[2]; 120 mM (1%) DMSO,did not inhibit
same,agonist or antagonist activity (in words),[2],neither agonists nor antagonists
CCCCCCCCO [1-octanol],mean±S.E.M. percent cell adhesion,[3],12±1%
same,lipid solubility relative to 1-pentanol,[4],thirty-seven-fold more lipid soluble
same,P(m/b) membrane/buffer partition coefficient,[1],189
same,EC50,[2],3 µM
same,EC50,[2]; [6],98 µM
same,antagonist potency relative to 1-pentanol,"[2]; FIG. 3 and Wilkemeyer et al., 2000",two hundred-fold more potent
same,EC50,[2]; [7],~5 µM
same,IC50,[2],5 µM
CC(O)C1CC1 (stereo not shown) [cyclopropylethanol],P(m/b) membrane/buffer partition coefficient,[1],0.83
same,agonist or antagonist activity (in words),[2],neither agonists nor antagonists
CCCC(C)O (stereo not shown) [2-pentanol],P(m/b) membrane/buffer partition coefficient,[1],4.38
same,effect of increasing concentrations of 1-butanol on the antagonist activity (in words),[2],did not eliminate the antagonist activity
CCCCCCCCCCCCCO [1-tridecanol],P(m/b) membrane/buffer partition coefficient,[1],36394
same,EC50,[2],0.25 µM
same,EC50,[2]; [6],1620 µM
same,fold less potent antagonist than C12 (1-dodecanol),[2]; against 100 mM ethanol (FIG. 3),approximately 25 fold
CC=CCO [2-buten-1-ol],percent inhibition of cell adhesion,"[2]; 15 mM 2-buten-1-ol alone, n=10",34±4%
same,percent inhibition of cell adhesion,"[2]; 15 mM 2-buten-1-ol plus 2 mM 1-butanol, n=11",35+6%
same,antagonism of the actions of 1-butanol and ethanol (in words),[2]; 15 mM (ECEQ) 2-buten-1-ol,partially antagonized
same,inhibition of L1-mediated cell-cell adhesion (in words),[2]; 15 mM (ECEQ) 2-buten-1-ol,partially inhibited
same,antagonism of the actions of 1-butanol or ethanol (in words),[2]; 150 mM 2-buten-1-ol,neither antagonized nor augmented
same,inhibition of L1-mediated cell-cell adhesion (in words),[2]; 150 mM 2-buten-1-ol,maximally inhibited
CCCCCCCCCCCCCCCO [1-pentadecanol],P(m/b) membrane/buffer partition coefficient,[1],347560
same,antagonist effect at higher concentrations (in words),[2],inactive
same,antagonist activity against ethanol (in words),[2]; against 100 mM ethanol,completely inactive
same,antagonist activity against ethanol (in words),"[2]; against 100 mM ethanol, listed as 1-Pentadecanol",no antagonist activity
same,agonist or antagonist activity (in words),[2],neither agonists nor antagonists
CCCCCCO [1-hexanol],EC50,[2]; [8],80 µM
"CCO [ethanol, reference compound]",inhibition at 100000 µM,"[2]; NIH3T3, read-out: percent inhibition of L1-mediated cell-cell adhesion",62 ± 7%
OC1CCCC1 [cyclopentanol],P(m/b) membrane/buffer partition coefficient,[1],2.24
same,effect of increasing concentrations of 1-butanol on the antagonist activity (in words),[2],eliminated the antagonist activity
CCCCCCCO [1-heptanol],P(m/b) membrane/buffer partition coefficient,[1],51.4
CCC(C)O (stereo not shown) [2-butanol],antagonist activity (in words),[2]; 11 mM (ECEQ) 2-butanol,no antagonist activity
same,percent inhibition of L1-mediated cell-cell adhesion,"[2]; 11 mM (ECEQ) 2-butanol alone, n=6",63±9%
CCCCCCCCCCCCCCO [1-tetradecanol],P(m/b) membrane/buffer partition coefficient,[1],112468
same,antagonist effect at higher concentrations (in words),[2],inactive
same,antagonist activity against ethanol (in words),[2]; against 100 mM ethanol,only minimal antagonist activity
same,agonist or antagonist activity (in words),[2],neither agonists nor antagonists
C=CCCO [3-buten-1-ol],mean±S.E.M. percent cell adhesion,[3],14±0%
same,P(m/b) membrane/buffer partition coefficient,[1],1
same,IC50,[2]; antagonism of 1-butanol inhibition of cell-cell adhesion,3000 µM
same,EC50,"[2]; read-out: approximate EC50 (against 2 mM 1-butanol), antagonist concentration used in FIG. 5B",~3000 µM
same,"effect on L1-mediated cell-cell adhesion, compound alone (in words)",[5],no effect
CC(C)CCCO [4-methyl-1-pentanol],mean±S.E.M. percent cell adhesion,[3],15±3%
same,P(m/b) membrane/buffer partition coefficient,[1],9.36
same,effect of increasing concentrations of 1-butanol on the antagonist activity (in words),[2],did not eliminate the antagonist activity
same,EC50,[2]; [8],32 µM
same,ratio of half-maximal aqueous concentrations versus 1-hexanol,[2]; [9],approximately 2.5 times
same,ratio of half-maximal aqueous concentrations versus 1-pentanol,[2]; [9],approximately 7 fold
same,EC50,[2]; [7],~40 µM
CCCCCCCCCCCO [1-undecanol],P(m/b) membrane/buffer partition coefficient,[1],3810
same,EC50,[2],0.03 µM
same,EC50,[2]; [6],20 µM
CCCCCO [1-pentanol],mean±S.E.M. percent cell adhesion,[3],16±2%
same,P(m/b) membrane/buffer partition coefficient,[1],5.02
same,EC50,[2],540 µM
same,effect of increasing concentrations of 1-butanol on the antagonist activity (in words),[2],did not eliminate the antagonist activity
same,EC50,[2]; [6],540 µM
same,EC50,[2]; [8],223 µM
same,EC50,[2]; [7],~700 µM
1-butanol [reference compound],mean±S.E.M. percent cell adhesion,[3],13±2%
same,percent of the maximal agonist response,[2]; 2 mM 1-butanol (FIG. 5A),approximately 90%
same,mean percent inhibition of cell adhesion,"[2]; 2 mM 1-butanol alone, n=11",60±5%
